# Reference: patent US7105635B2, “Cyclic beta-sheet peptides useful as apoptotic/cytotoxic cancer agents” (The University of Toledo, priority 2002, dated 2006)
# pEC50, pKd: −log10 of the molar value. Entries after “also recorded” stand apart in the source; their conditions may differ. Read-outs that look alike come from different tables or passages of the source. Positions of bridges follow the written chain, without caps; N, C: chain ends. Residues, ends and D or L forms follow the SMILES beside them. No end group written: not given here. *: point of attachment. Biotin = O=C1N[C@H]2[C@H](CS[C@H]2CCCCC(=O)*)N1
# Columns and labels:
# CEM cells [1] = experiment: Annexin-V-FITC flow cytometry of phosphatidyl serine exposure (apoptosis), CEM cells; assay type: cell-based, human; conditions: 20 μM, control experiments
# Procedure: FIGS. 10a–d are graphs showing comparisons of phosphatidyl serine exposure on the outer surface of CEM cells following a 2.5-hour incubation with or without 40 μM cyclized L1AD3. After incubation, cells were washed twice with cold PBS prior to adding FITC-conjugated Annexin-V. Flow cytometry using a B-D FACSCalibur was performed, and 10,000 cells were analyzed using the B-D CellQuest program. Individual cells are represented in the dot plots on the left (FIGS. 10a and 10c), and histograms of the same data are on the right (FIGS. 10b and d). Whereas untreated tumor cells show less than 6% spontaneous apoptosis (FIG. 10c, lower left quadrant), 93% of cells treated with L1AD3 undergo apoptosis after 2.5 hours (FIG. 10d, lower right quadrant).
# Flow cytometry using fluorescent Annexin-V distinguishes cells with externalized phosphatidyl serine. As long as the cell's plasma membrane remains intact, fluorescent dyes such as ethidium bromide or propidium iodide are excluded. A 40 μM concentration of L1AD3 caused approximately 93% of CEM cells to become Annexin-V-positive within 2.5 hours, which is unusually short for signs of apoptosis to occur. Camptothecin, a cancer chemotherapeutic agent administered in control experiments at 20 μM, caused only 33% of the cells to appear apoptotic. […]
# CEM cells [2] = experiment: cell permeability to ethidium bromide / propidium iodide, CEM cells; assay type: cell-based, human; conditions: for cell permeability to ethidium bromide or propidium iodide: CEM cells
# Procedure: FIG. 11 is a graph showing changes in cell permeability to ethidium bromide following incubation with L1AD3 or with native CTX. CEM cells (10^6/ml) were incubated in quartz cuvets in a Shimidzu fluorescence spectrophotometer with 1 μg/ml ethidium bromide. Either CTX at a final concentration of 1.6 μM or L1AD3 at a final concentration of 40 μM was added, and readings were taken at 5-minute intervals, with excitation at 526 nm and emission measured at 608 nm.
# Flow cytometry using fluorescent Annexin-V distinguishes cells with externalized phosphatidyl serine. As long as the cell's plasma membrane remains intact, fluorescent dyes such as ethidium bromide or propidium iodide are excluded. A 40 μM concentration of L1AD3 caused approximately 93% of CEM cells to become Annexin-V-positive within 2.5 hours, which is unusually short for signs of apoptosis to occur. Camptothecin, a cancer chemotherapeutic agent administered in control experiments at 20 μM, caused only 33% of the cells to appear apoptotic.
# Since whole CTX can rapidly permeabilize leukemic T-lymphocytes, separate experiments using a fluorescence spectrophotometer were applied to examine changes in plasma membrane permeability to ethidium bromide following exposure of CEM cells either to L1AD3 or to CTX.
# CEM cells [3] = experiment: [3H]-thymidine incorporation into DNA of CEM cells; assay type: cell-based, human; conditions: for pEC50: CEM cells, FIG. 8, read-out: EC50, inhibition of thymidine incorporation into DNA
# Procedure: FIG. 8 is a graph showing percent inhibition of thymidine incorporation as a function of peptide concentration. Each well of a microtiter plate received 200,000 CEM cells in log phase of growth, suspended in 50 μl complete medium. The same volume of diluted peptide, either linear or cyclized, was added to achieve the final concentrations shown. After a 1 -hour incubation at 37 degrees C., 1 μCi of [^3H]-thymidine in 25 μl medium was added, and the plates were incubated another 3 hours prior to harvesting. Control cells were incubated without either peptide, but with the same volume of medium.
# The peptide called L1AD3, Seq. ID No. 1, prevents the proliferation of cancerous human T-lymphocytes (CEM cell line) by inhibiting incorporation of thymidine into DNA.
# (§1) The L1AD3 peptide stops tumor cell division in both Jurkat and CEM cells with an EC50 of approximately 5 μM, as shown in FIG. 8. This is indicated by the inhibition of thymidine incorporation into DNA. […] In contrast to CTX, which rapidly depolarized skeletal muscle (Dufton and Hider, 1991), and which at 1 μM concentrations causes cessation of beating of embryonic chicken heart cells within 5–10 seconds, the L1AD3 peptide at 40 μM concentrations has no effect upon the beating of heart cells over 2 hours of observation. Therefore, it is believed that the L1AD3 peptide, along with the other seven peptides, is not harmful to the heart, in contrast to native CTX.
# Jurkat cells = experiment: thymidine incorporation into DNA of Jurkat cells; assay type: cell-based, human; conditions: read-out: EC50, inhibition of thymidine incorporation into DNA
# Procedure: as §1
# [4] = test system: normal human peripheral white blood cells (PBL's); experiment: Annexin-V binding / phosphatidyl serine externalization, normal human white blood cells; assay type: cell-based
# normal human cells = experiment: permeabilization of normal human cells (propidium iodide, ethidium bromide, trypan blue); assay type: cell-based; conditions: ethidium bromide or trypan blue
# Description: (§2) The L1AD3 peptide composition, Seq. […] It is believed that there is an absence of the L1AD3 protein receptor on the surface of normal human white blood cells, whereas the L1AD3 protein receptor target is found in the surface of leukemic T-cells.
# [5] = test system: embryonic chicken heart cells; experiment: beating of heart cells; assay type: cell-based; conditions: for time to cessation of beating of heart cells: 1 μM
# Procedure: as §2, §1
# CEM cells [6] = experiment: luciferin/luciferase bioluminescence assay of total ATP in CEM cells; assay type: cell-based, human
# Procedure: FIG. 9 is a graph showing the amounts of total ATP present in cell lysates following incubation of CEM cells with peptide analogs. Cyclized peptides were added at double their final concentration, which was 20 μM, to triplicate wells of a black 96-well reaction plate. CEM cells (50,000 per well) were added in the same volume, and the plate was incubated 30 minutes at 37 degrees. Lysis buffer (Sigma) was added, followed by luciferin/luciferase assay buffer (Molecular Probes). The plate was sealed with a clear plastic film and read using a Packard Top-Count reader. Cells with medium only had ATP levels of 1073±160 in arbitrary luminescence units. Peptide analogs are identified by single amino acid modifications.
# Changes in cellular energy levels can contribute to the process of cytotoxicity. ATP was measured using a 96-well luciferin/luciferase bioluminescence assay system and found a 60% reduction in ATP after 30 minutes' incubation of CEM cells with 20 μM L1AD3, as shown in FIG. 9. While somewhat large, this reduction of ATP is consistent with apoptosis, inasmuch as necrosis tends to occur when ATP levels drop to below 30% of control.
# CEM cells [7] = experiment: biotin-avidin sorbant binding assay, adherent CEM cells; set-up: species or system human; conditions: for binding after pretreatment of cells with trypsin: solid-phase assay
# Procedure: CEM cells were held on the surface of 96-well plates previously coated with anti-human MHC-1 antibody (anti-HLA-A,B,C). After plates containing adherent cells were blocked with bovine albumin and washed with PBS, biotinylated L1AD3, either alone (upper trace) or in a 1:1 ratio with non-biotinylated L1AD3 (lower trace), was added to triplicate wells to achieve the indicated final concentrations. After a 1-hour incubation at 37 degrees, plates were washed three times with PBS, and avidin-HRP was added. Enzyme substrate (ABTS) was added, and color development at 415 nm was monitored using an ELISA plate reader with printed output.
# The lower two traces in the figure were developed as described above for FIG. 12, except that the target cells were human PBL's that had been isolated about 4 hours before the assay. […] In this case, 0.0125% trypsin was incubated with adherent cells for 10 min, followed by three washes and subsequent addition of soybean trypsin inhibitor.
# (§3) A biotin-avidin sorbant assay, similar to an ELISA procedure was performed to measure binding. In this assay, horseradish peroxidase-conjugated avidin was employed rather than an enzyme-linked second antibody. Mouse anti-human MHC-1 (anti HLA-A,-B,-C) antibody was used to hold CEM or normal human cells to the surface of 96-well microtiter plates.
# (§4) In order to investigate the nature of the binding site for L1AD3 on tumor cells, trypsin was added to the cells and subsequently quenched by adding enzyme inhibitor prior to measurements of binding, using biotinylated peptide in either the solid-phase or the fluorescent assay described above.
# [8] = test system: normal human peripheral blood lymphocytes; experiment: biotin-avidin sorbant binding assay, normal human PBL's; conditions: with or without non-biotinylated L1AD3
# Procedure: FIG. 13 is a graph showing inhibition of specific binding of biotinylated L1AD3 to normal human peripheral blood lymphocytes by non-biotinylated L1AD3, and abolition of binding by pretreatment of CEM cells with trypsin. The lower two traces in the figure were developed as described above for FIG. 12, except that the target cells were human PBL's that had been isolated about 4 hours before the assay. […] In this case, 0.0125% trypsin was incubated with adherent cells for 10 min, followed by three washes and subsequent addition of soybean trypsin inhibitor.
# as §3
# CEM cells [9] = test system: CEM cells
# Procedure: To investigate peptide binding to cell surfaces, the peptide was modified by N-terminal biotinylation. […] A biotin-avidin sorbant assay, similar to an ELISA procedure was performed to measure binding. In this assay, horseradish peroxidase-conjugated avidin was employed rather than an enzyme-linked second antibody. Mouse anti-human MHC-1 (anti HLA-A,-B,-C) antibody was used to hold CEM or normal human cells to the surface of 96-well microtiter plates.
# as §4
# CEM cells [10] = test system: CEM cells; remark: listed apart in the source
# [11] = test system: human leukemic T-lymphocytes; conditions: previous comparisons of native toxins (Stevens-Truss & Hinman, 1997); cited from earlier work
molecule,measurement,setting,value
CC[C@@]1(O)C(=O)OCc2c1cc1n(c2=O)Cc2cc3ccccc3nc2-1 [Camptothecin],cells apoptotic (Annexin-V),CEM cells [1],33%
same,cells apoptotic (Annexin-V),CEM cells [1]; listed as camptothecin,23%
same,cell permeability to ethidium bromide or propidium iodide,CEM cells [2],neither L1AD3 nor camptothecin caused increases in cell permeability
"CC(C)C[C@@H]1NC(=O)[C@H](CCCCN)NC(=O)[C@H](CC(N)=O)NC(=O)[C@@H](NC(=O)[C@H](CCCCN)NC(=O)[C@@H](N)CC(C)C)CSSC[C@@H](C(=O)O)NC(=O)[C@H]([C@@H](C)O)NC(=O)[C@H](CCCCN)NC(=O)[C@H](Cc2ccc(O)cc2)NC(=O)[C@H](Cc2ccccc2)NC(=O)[C@H](CC(C)C)NC(=O)[C@@H]2CCCN2C(=O)[C@H](C(C)C)NC1=O [L1AD3, Leu-Lys-Cys-Asn-Lys-Leu-Val-Pro-Leu-Phe-Tyr-Lys-Thr-Cys] (H-LKCNKLVPLFYKTC-OH; disulfide 3-14)",pEC50,CEM cells [3],~5.30
same,pEC50,Jurkat cells,~5.30
same,externalization of phosphatidyl serine / Annexin-V binding in normal human white blood cells,[4]; 40 μM peptide (same concentration as CEM test),did not induce externalization of phosphatidyl serine; also recorded: not affected above background levels
same,"Annexin-V labelling of T-cells, B-cells and macrophages among PBL's","[4]; 1-hour incubation, double-labeled with anti CD-3, CD-19, CD-14",all were within background levels
same,permeabilizing effect on normal human cells,normal human cells,no permeabilizing effect
same,effect upon the beating of heart cells,"[5]; 40 μM, 2 hours",no effect
CC(C)C[C@H](NC(=O)[C@H](CCCCN)NC(=O)[C@H](CC(N)=O)NC(=O)[C@H](CS)NC(=O)[C@H](CCCCN)NC(=O)[C@@H](N)CC(C)C)C(=O)N[C@H](C(=O)N1CCC[C@H]1C(=O)N[C@@H](CC(C)C)C(=O)N[C@@H](Cc1ccccc1)C(=O)N[C@@H](Cc1ccc(O)cc1)C(=O)N[C@@H](CCCCN)C(=O)N[C@H](C(=O)N[C@@H](CS)C(=O)O)[C@@H](C)O)C(C)C [Linear L1AD3] (H-LKCNKLVPLFYKTC-OH; N-terminus and C-terminus assumed),EC50 of linear peptide relative to cyclized counterpart,CEM cells [3],more than eight times
same,pEC50,CEM cells [3],~4.37
Biotin-LKCNKLVPLFYKTC (cysteine pairing not given here) [biotinylated L1AD3],ability to reduce ATP levels in cancer cells,CEM cells [6],retains its ability to reduce ATP levels
same,binding to human cancer cells,CEM cells [7],bound human cancer cells; also recorded: preserves its ability to bind cancer cells
same,pKd,"CEM cells [7]; saturable binding, read-out: apparent KD of binding to CEM cells",~5.22
same,binding after pretreatment of cells with trypsin,CEM cells [7],abolished
same,binding after pretreatment of cells with trypsin,CEM cells [7]; listed as biotinylated peptide,abolished binding
same,binding to normal human white blood cells / PBL's,[8],did not bind appreciably
same,fluorescence increase over cells not incubated with biotinylated peptide,"CEM cells [9]; avidin-FITC, CEM cells in suspension",48%
same,binding after pretreatment of cells with trypsin,CEM cells [9]; fluorescent assay,abolished binding
same,other activities after biotinylation,CEM cells [10],significantly diminished
"LKCNKLVPLFYKTCPAGKNLCYKMFMVATPKVPVKRGCIDVCPKSSLL VKYVCCNTDRCN (LKCNKLVPLFYKTCPAGKNLCYKMFMVATPKVPVKRGCIDVCPKSSLLVKYVCCNTDRCN; Naja naja atra) [CTX, parent 60-amino acid cytotoxin purified from the Taiwan cobra, Naja naja atra]",time until cells began to admit ethidium bromide,"CEM cells [2]; 1.6 μM, fluorescence spectrophotometer",≤ 15 min
same,time to induced permeability to propidium iodide,"CEM cells [2]; 10 μM, fluorescence microscopy",≤ 30 s
same,cell permeability to ethidium bromide or propidium iodide,CEM cells [2],rapidly became permeable
same,time to cessation of beating of heart cells,[5],5 to 10 s
same,time to cessation of beating of heart cells,[5]; listed as “parent” cardiotoxin,10 to 30 s
same,toxicity toward human leukemic T-lymphocytes,[11],highly toxic
